Results as given in patent publication US20230312481A1, “SUBSTITUTED (PHTHALAZIN-1-YLMETHYL)UREAS, SUBSTITUTED N-(PHTHALAZIN-1-YLMETHYL)AMIDES, AND ANALOGUES THEREOF” (priority 2020, published 2023).
Like-named read-outs stand apart in the source and are kept apart here.

System: HBV rcDNA in HepDE19 cells
Assay: HepDE19 assay with bDNA quantitation of HBV rcDNA
Format: cell-based, hepatitis B virus
Details: read-out: DE-19bDNA EC50
Procedure, shortened: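 HepDE19 cells were induced by tetracycline withdrawal, then treated with compounds (0.5% DMSO final) for 7 days at 37 °C. HBV rcDNA measured by bDNA assay with HBV-specific probes. Viability assessed on replicate plates (5,000 cells/well, 4 days) by CellTiter-Glo ATP content.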

[1] = Hepatitis B virus, HepDE19, 168 h
[2] = HepDE19 cells, 7 day incubation, rcDNA measured by Quantigene 2.0 bDNA assay, top concentration 25 µM
[3] = Hepatitis B virus, HepDE19, 168 h, HepDE19 cells, 7 day incubation, rcDNA measured by Quantigene 2.0 bDNA assay, top concentration 25 µM

Row | Structure (SMILES) | EC50 [1] | EC50 [2] | EC50 [3]
1 | C[C@H](c1n[nH]c(=O)c2cc(F)c(F)cc12)N(C)C(=O)Nc1ccc(F)cc1 [Compound 43, (R)(1-(6,7-difluoro-4-oxo-3,4-dihydrophthalazinyl)ethyl)-3-(4-fluorophenyl)methylurea] | 59 nM |  | 
2 | CC(c1n[nH]c(=O)c2cc(F)c(F)cc12)N(C)C(=O)c1ccc2c(ccn2C)c1 (single isomer, unassigned) [Compound 106, N-(1-(6,7-difluoro-4-oxo-3,4-dihydrophthalazin-1-yl)ethyl)-N,1-dimethyl-1H-indole-5-carboxamide] |  | 4030 nM | 
3 | C[C@@H](c1nn(C)c(=O)c2cc(F)c(F)cc12)N(C)C(=O)Nc1ccc(F)c(Cl)c1 [Compound 37, (S)-3-(3-chloro-4-fluorophenyl)-1-(1-(6,7-difluoro-3-methyl-4-oxo-3,4-dihydrophthalazin-1-yl)ethyl)-1-methylurea] | 2300 nM |  | 
4 | C[C@H](c1n[nH]c(=O)c2cc(F)c(F)cc12)N(C)C(=O)c1cc2c(F)c(F)ccc2[nH]1 [Compound 57, (R)-N-(1-(6,7-difluoro-4-oxo-3,4-dihydrophthalazin-1-yl)ethyl)-4,5-difluoro-N-methyl-1H-indole-2-carboxamide] | 12 nM |  | 
5 | CC(c1n[nH]c(=O)c2cc(Cl)ccc12)N(CCCO)C(=O)Nc1ccc(F)cc1 (racemic) [Compound 14, 1-(1-(6-chloro-4-oxo-3,4-dihydrophthalazin-1-yl)ethyl)-3-(4-fluorophenyl)-1-(3-hydroxypropyl)urea] |  |  | 110 nM
6 | CC(c1n[nH]c(=O)c2cc(F)c(F)cc12)N(C)C(=O)c1ccc(Br)cc1 (racemic) [Compound 65, 4-bromo-N-(1-(6,7-difluoro-4-oxo-3,4-dihydrophthalazin-1-yl)ethyl)-N-methylbenzamide] |  |  | 60 nM
7 | CC(c1n[nH]c(=O)c2cc(F)c(F)cc12)N(C)C(=O)c1ccc2ncoc2c1 (single isomer, unassigned) [Compound 90, N-(1-(6,7-difluoro-4-oxo-3,4-dihydrophthalazin-1-yl)ethyl)-N-methylbenzo[d]oxazole-6-carboxamide] |  | > 25000 nM | 
8 | CC(c1n[nH]c(=O)c2cc(F)c(F)cc12)N(C)C(=O)c1cc2sc(F)cc2[nH]1 (single isomer, unassigned) [Compound 103, N-(1-(6,7-difluoro-4-oxo-3,4-dihydrophthalazin-1-yl)ethyl)-2-fluoro-N-methyl-4H-thieno[3,2-b]pyrrole-5-carboxamide] |  | 60 nM | 
9 | CC(c1n[nH]c(=O)c2cc(F)c(F)cc12)N(C)C(=O)c1ccc(Br)c(F)c1 (racemic) [Compound 63, 4-bromo-N-(1-(6,7-difluoro-4-oxo-3,4-dihydrophthalazin-1-yl)ethyl)-3-fluoro-N-methylbenzamide] |  |  | 60 nM
